In patent publication US7214676B2, “Spirotricyclic derivatives and their use as phosphodiesterase-7 inhibitors” (Warner-Lambert Company LLC, priority 2001, dated 2007) one finds IC50 data, which are given here for 9 compounds.

The structures appear in SMILES notation.

The target of this experiment is T1, PDE7A1 (Homo sapiens, UniProt Q13946).
T1 construct: made in house; host or cells: Sf21 insect cells, baculovirus expression system
T1 sequence (Q13946 whole entry, species assumed): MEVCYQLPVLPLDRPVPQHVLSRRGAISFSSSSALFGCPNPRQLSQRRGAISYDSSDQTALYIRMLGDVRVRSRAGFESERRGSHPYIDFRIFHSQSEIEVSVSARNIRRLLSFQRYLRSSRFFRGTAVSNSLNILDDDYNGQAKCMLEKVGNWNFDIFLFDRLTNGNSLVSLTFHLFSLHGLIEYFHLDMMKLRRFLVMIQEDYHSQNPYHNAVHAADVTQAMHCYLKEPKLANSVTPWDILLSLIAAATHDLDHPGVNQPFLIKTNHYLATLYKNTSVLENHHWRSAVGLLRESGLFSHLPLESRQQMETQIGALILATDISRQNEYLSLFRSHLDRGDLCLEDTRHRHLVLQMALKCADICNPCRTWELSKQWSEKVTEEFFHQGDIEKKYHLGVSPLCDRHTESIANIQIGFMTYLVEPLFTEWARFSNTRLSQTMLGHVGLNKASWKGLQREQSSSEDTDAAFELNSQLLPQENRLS
Description: In vitro inhibition of phosphodiesterase 7. It is filed as biochemical. The conditions noted are these: substrate cAMP 50 nM, reaction stopped after 10 minutes; read-out: IC50 PDE7. As for the experimental part: The capacity of the compounds of the invention to inhibit cyclic nucleotide phosphodiesterases was evaluated by measuring their IC50 (concentration necessary to inhibit the enzymatic activity by 50%).
PDE3A3, PDE4D3, PDE7A1 were cloned and expressed in insect cells Sf21 using the baculovirus expression system and we uses directly the cell culture supernatant as enzyme source. The source of PDE1 and of PDE5 were human cell lines (respectively TPH1 human monocytes and MCF7 human breast adenocarcinoma).
They were obtained partially purified on an anion exchange column (Mono Q) according to a method adapted from Lavan B. E., Lakey T., Houslay M. D. Biochemical pharmacology, 1989, 38 (22), 4123–4136.
Measurement of the enzymatic activity for the various types of PDE was then made according to a method adapted from W. J. Thompson et al. 1979, Advances in Cyclic Nucleotide Research, Vol. 10: 69–92, ed. G. Brooker et al. Raven Press, NY.
The substrate used was cGMP for PDE1 and PDE5 and cAMP for PDE 3, PDE 4 and PDE 7. The substrate concentration was 0.2 μM for PDE 1, PDE 3 and PDE 5, 0,25 μM for PDE 4 and 50 nM for PDE 7.
The enzymatic reaction was stopped after 1 hour for PDE 1, PDE 3 and PDE 5 and 10 minutes for PDE 4 and PDE 7.
Consider `O=C1Nc2c(Cl)cc(-c3ccc(C(=O)N4CCN(CCN5CCOCC5)CC4)cc3)cc2C2(CCCCC2)N1` [Example 52, 8′-Chloro-6′-[4-(4-(2-morpholin-4-yl-ethyl)-piperazine-1-carbonyl)-phenyl]spiro[-cyclohexane-1-4′-(3′,4′-dihydro)quinazolin]-2′(1′H)-one], for which the IC50 came out at 15 nM.
Turning to `O=C1Nc2c(Cl)cc(-c3ccc(C(=O)N4CCN(c5ncccn5)CC4)cc3)cc2C2(CCCCC2)N1` [Example 51, 8′-Chloro-6′-[4-(4-pyrimidin-2-yl-piperazine-1-carbonyl)phenyl]spiro[-cyclohexane-1-4′-(3′,4′-dihydro)quinazolin]-2′(1′H)-one], the IC50 was 8 nM.
`CN(C)CCCNC(=O)c1cccc(-c2cc(Cl)c3c(c2)C2(CCCCC2)NC(=O)N3)c1` [Example 41, 8′-Chloro-6′-[3-(3-N-dimethylamino-propylcarboxamide)phenyl]spiro[-cyclohexane-1-4′-(3′,4′-dihydro)quinazolin]-2′(1′H)-one]: the IC50 stood at 20 nM.
As to `O=C1Nc2c(Cl)cc(-c3ccc(C(=O)N4CCN(CC(=O)N5CCOCC5)CC4)cc3)cc2C2(CCCCC2)N1` [Example 53, 8′-Chloro-6′-[4-(4-(2-morpholin-4-yl-2-oxo-ethyl)-piperazine-1-carbonyl)-phenyl]spiro[-cyclohexane-1-4′-(3′,4′-dihydro)quinazolin]-2′(1′H)-one], the IC50 is 13 nM.
For the compound `O=C1Nc2c(Cl)ccc(Cl)c2C2(CCCCC2)N1` [Example 15, 5′,8′-Dichlorospiro[cyclohexane-1-4′-3′,4′-dihydro)quinazolin]-2′(1′H)-one], the IC50 is 14 nM.
Take `O=C1Nc2c(Cl)cc(-c3ccccc3)cc2C2(CCCCC2)N1` [Example 26, 8′-Chloro-6′-phenylspiro[cyclohexane-1-4′-(3′,4′-dihydro)quinazolin]-2′(1′H)-one]: the IC50 was 16 nM.
Turning to `O=C1Nc2c(Cl)cc(-c3ccc(C(=O)N4CCN(CCOCCO)CC4)cc3)cc2C2(CCCCC2)N1` [Example 54], the IC50 came out at 13 nM.
Regarding `CN1CCN(C(=O)c2ccc(-c3cc(Cl)c4c(c3)C3(CCCCC3)NC(=O)N4)cc2)CC1` [Example 38, 8′-Chloro-6′-[4-(4-methyl-piperazine-1-carbonyl)phenyl]spiro[cyclohexane-1-4′-(3′,4′-dihydro)quinazolin]-2′(1′H)-one], the IC50 came to 18 nM.
Take `O=C1Nc2c(Cl)cc(-c3ccc4[nH]ccc4c3)cc2C2(CCCCC2)N1` [Example 34, 8′-Chloro-6′-(1H-indol-5-yl)spiro[cyclohexane-1-4′-(3′,4′-dihydro)quinazolin]-2′(1H)-one]: the half-inhibitory concentration (IC50) amounted to 12 nM.

What is called IC50 is the midpoint of a concentration-inhibition curve.
